In patent US9604931B2, “Nuclear receptor binding agents” (GTx, Inc., priority 2007, dated 2017):
Entries after “also recorded” stand apart in the source; their conditions may differ.

Assays:
[1] = system: PPAR-α; test: PPAR-α transactivation (PPRE-LUC) in HEK-293 cells co-transfected with ER-β; format: cell-based
Description: FIG. 12 depicts the effect of ER-β ligand on PPAR-γ function through ligand binding domain (LBD). (A). HEK-293 cells were transfected with 0.25 μg PPRE-LUC, 5 ng CMV-renilla LUC and the indicated receptors (PPAR-γ and ER-β for the left panel and PPAR-α and ER-β for the right panel). The cells were treated 24 hrs after transfection with the indicated ligands and harvested 48 hrs after transfection and firefly luciferase activity was measured and normalized to renilla luciferase. (B). H475 in ER-β LBD is important for its function. H475 in ER-β LBD was mutated to alanine (A) using a site directed mutagenesis kit. Transactivation assay was performed as described in panel A in HEK-293 cells with a titration of ER-β ligands in wild type (WT) or ER-β H475A. (C). […] The cells were treated 24 hrs after transfection with the indicated ligands and harvested 48 hrs after transfection and firefly luciferase activity was measured and normalized to renilla luciferase. […] The cells were treated 24 hrs after transfection with the indicated ligands and harvested 48 hrs after transfection and firefly luciferase activity was measured and normalized to renilla luciferase. […] The cells were treated 24 hrs after transfection with the indicated ligands and harvested 48 hrs after transfection and firefly luciferase activity was measured and normalized to renilla luciferase. […]

[2] = target: T1, ER-β (Rattus norvegicus (Rat), UniProt Q62986); test: ER-β transactivation (ERE-LUC) in COS or 293 cells; format: cell-based; conditions: for activation at 0.1 µM: HEK293, 48 h, read-out: Estradiol activity at 100 nM of NRBA, ER-β, 100 nM compound compared to 1 nM estradiol
[3] = target: ER-α (Rattus norvegicus (Rat), UniProt P06211); format: cell-based; conditions: for Estradiol activity at 100 nM of NRBA, ER-α: 100 nM compound compared to 1 nM estradiol
Description: COS or 293 cells were plated in DME without phenol red+10% cs FBS at 90,000 cells per well in 24 well plates, and were transfected with 0.25 μg of the vector “ERE-LUC”, where a firefly luciferase gene was driven by two estrogen responsive elements and 0.02 μg of the control CMV-LUC, Renilla where a luciferase gene was driven by a CMV promoter. […] All the receptors were cloned from rat tissue into the PCR3.1 vector backbone. Twenty four hours post transfection, cells were treated with compounds of this invention, estrogen, DHT, and other NRBAs or combinations thereof. Cells were harvested 48 hrs after transfection, and assayed for firefly and Renilla luciferase activity.

[4] = system: Rat Aortic Smooth Muscle Cells (RASMC); test: RASMC cell proliferation assay (WST-1); format: cell-based; conditions: for EC50: Rattus norvegicus, inhibitory effect sigmoid Emax model, read-out: EC50 for inhibition of RASMC proliferation; for Proliferation of RASMC: concentration between 10-30 μM
Description: EC50 values were calculated using WinNonLin 5.0.1 using the inhibitory effect sigmoid Emax model.

[5] = system: Ishikawa endometrial cells; test: Ishikawa growth assay (ALP); format: cell-based; conditions: for Concentration at which proliferation of Ishikawa cells was induced: highest concentration tested
Description: Ishikawa cells were plated at 15,000 cells/well in 24 well plates in DME:F12 (1:1)+5% csFBS w/o phenol red. The cells were maintained in this medium at 37° C. for 3 days. Medium was changed immediately prior to drug treatment for an additional 72 hrs. After 72 hrs, the cells were fixed with formalin and the amount of alkaline phosphatase (ALP) measured by para-nitrophenyl phosphate method.
This effect is one potential concern in the development of ER-α SERMs.

[6] = system: high fat diet (HFD) induced obesity model; test: High fat diet induced obesity, prevention studies; format: in vivo, C57BL6 male mice; conditions: for Prevention of the increase in body fat (MRI) / Prevention of body weight increase caused by the high fat diet: Study 2, 30 mg/kg/day s.c.; for Lean mass (MRI): Study 2, high fat diet; for Fat mass (MRI): Study 2, versus high fat diet and vehicle
Description: The mice were treated for 12 weeks.

[7] = system: receptors for progesterone, mineralocorticoids, androgens, glucocorticoids, FXR, PXR, LXR, RXR, PPAR-α, PPAR-γ and ERR-α, ERR-β and ERR-γ; test: Transactivation assays for cross reactivity with 13 other NHR; format: cell-based; conditions: concentrations as high as 10 μM; data not shown
[8] = target: T1, ER-β; test: Transient transactivation assay in HEK-293 cells, ER-β and ERE-LUC; format: cell-based; conditions: for Function on ER-β in transactivation: HEK-293 cells
Description: Human estrogen receptors (ER-α and ER-β) were cloned from prostate cDNA into a pCR3.1 plasmid vector backbone. PGC-1 was cloned into mammalian two hybrid vector pACT. ER-β H475 was mutated to alanine using site-directed mutagenesis. Sequencing was performed to determine the absence of any non specific mutations. […] HEK-293 cells were plated at 100,000 cells per well of a 24 well plate in […] (DMEM)+5% charcoal-stripped fetal bovine serum (csFBS). […] Luciferase assays were performed 48 hrs after transfection.
The cells were treated with varying concentrations of the ligands and their EC50 values were determined.

[9] = high fat diet, 30 mg/kg/day s.c.
[10] = high fat diet, 30 mg/kg/day s.c., 12 weeks

T1 sequence (Q62986 whole entry): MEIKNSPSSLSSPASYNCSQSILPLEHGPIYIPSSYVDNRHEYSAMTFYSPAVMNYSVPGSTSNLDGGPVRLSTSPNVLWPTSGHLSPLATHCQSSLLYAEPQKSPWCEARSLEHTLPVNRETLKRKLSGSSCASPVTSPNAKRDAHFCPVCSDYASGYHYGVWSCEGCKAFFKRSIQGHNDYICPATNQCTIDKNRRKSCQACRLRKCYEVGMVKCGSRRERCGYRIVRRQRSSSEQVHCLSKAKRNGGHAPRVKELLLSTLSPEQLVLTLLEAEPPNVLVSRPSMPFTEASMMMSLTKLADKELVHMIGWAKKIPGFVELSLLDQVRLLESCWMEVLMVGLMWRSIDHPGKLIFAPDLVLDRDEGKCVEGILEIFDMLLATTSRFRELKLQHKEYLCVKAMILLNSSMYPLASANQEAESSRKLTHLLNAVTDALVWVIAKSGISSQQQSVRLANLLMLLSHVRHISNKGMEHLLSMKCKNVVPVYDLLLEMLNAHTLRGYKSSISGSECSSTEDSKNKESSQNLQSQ

SMILES: N#Cc1cn(-c2ccc(O)cc2)c(=O)c2c(O)cc(O)cc12 [14m, 6,8-dihydroxy-2-(4-hydroxyphenyl)-1-oxo-1,2-dihydroisoquinoline-4-carbonitrile]
- WY14643 induced PPAR-α transactivation [1]: did not affect
- activation at 0.1 µM [2]: 74.5%
- Estradiol activity at 100 nM of NRBA, ER-α [3]: 49%
- EC50 [4]: 7.89 µM
- Proliferation of RASMC [4]: inhibited the proliferation of RASMC in a dose-dependent manner
- Ishikawa cell proliferation [5]: weakly induced Ishikawa cell proliferation
- Concentration at which proliferation of Ishikawa cells was induced [5]: 1 µM
- Prevention of the increase in body fat (MRI) [6]: more than 50%
- Prevention of body weight increase caused by the high fat diet ([6]; 12 weeks): more than 50%
- Lean mass (MRI) [6]: increased muscle mass; also recorded: increased the lean mass
- Fat mass (MRI) [6]: reduced fat mass; also recorded: significant reduction in fat mass
- Accumulation of fat in liver (oil red staining) ([6]; high fat diet): attenuated the accumulation of lipid droplets in the liver; also recorded: completely prevented the accumulation of fat in the liver
- Serum cholesterol increase ([6]; high fat diet): significantly reversed
- Serum leptin increase ([6]; high fat diet): significantly reversed
- Serum macrophage inflammatory protein-1β (MIP-1β) ([6]; high fat diet): undetectable levels
- Bone mineral content (BMC, DEXA) [6, 9]: prevented the loss in BMC
- Feed consumption / total caloric intake [6, 9]: did not affect total caloric intake
- Body fat (DEXA) [6, 10]: suppressing fat mass formation
- Body weight versus normal diet controls [6, 10]: statistically indistinguishable from control mice; also recorded: statistically indistinguishable from the normal diet controls
- Reduction in body weight compared to high fat diet and vehicle [6, 10]: greater than 85%
- Weight gained more than normal diet-fed controls [6, 10]: 5%
- Blood glucose levels in glucose tolerance test ([6]; high fat diet, 150 mg glucose orally): not statistically different from the normal diet controls
- Gastrocnemius muscle weight ([6]; high fat diet, 12 weeks): increased gastrocnemius muscle weight
- Serum follicle stimulating hormone (FSH) levels ([6]; high fat diet, 12 weeks): did not affect serum testosterone and follicle stimulating hormone (FSH) levels
- Serum testosterone levels ([6]; high fat diet, 12 weeks): did not affect the serum testosterone levels; also recorded: not altered
- Testes weights ([6]; high fat diet, 12 weeks): not altered
- White adipose tissue (WAT) weight ([6]; high fat diet, 12 weeks): prevented the increase in the WAT weight; also recorded: significantly reduced; also recorded: decreased WAT weight
- Cross reactivity with 13 other NHR [7]: did not cross react
- EC50 [8]: < 0.01 µM
- Function on ER-β in transactivation [8]: agonists

SMILES: O=c1c2c(O)cc(O)cc2c(Br)cn1-c1ccc(O)cc1 [12u, 4-bromo-6,8-dihydroxy-2-(4-hydroxyphenyl)isoquinolin-1(2H)-one]
- WY14643 induced PPAR-α transactivation [1]: did not affect
- ER-β agonist activity [2]: ER-β agonist activity
- activation at 0.1 µM [2]: 85%
- Classification as ER-α agonist [3]: ER-α agonists
- Estradiol activity at 100 nM of NRBA, ER-α [3]: 62%
- EC50 [4]: 9.56 µM
- Proliferation of RASMC [4]: inhibited the proliferation of RASMC in a dose-dependent manner
- Ishikawa cell proliferation [5]: weakly induced Ishikawa cell proliferation
- Concentration at which proliferation of Ishikawa cells was induced [5]: 1 µM
- Prevention of the increase in body fat (MRI) [6]: more than 50%
- Prevention of body weight increase caused by the high fat diet ([6]; 12 weeks): more than 50%
- Lean mass (MRI) [6]: increased muscle mass; also recorded: increased the lean mass
- Fat mass (MRI) [6]: reduced fat mass; also recorded: significant reduction in fat mass
- Body weight versus normal diet controls [6, 10]: statistically indistinguishable from the normal diet controls
- Gastrocnemius muscle weight ([6]; high fat diet, 12 weeks): increased gastrocnemius muscle weight
- Serum testosterone levels ([6]; high fat diet, 12 weeks): did not affect the serum testosterone levels; also recorded: not altered
- Testes weights ([6]; high fat diet, 12 weeks): not altered
- White adipose tissue (WAT) weight ([6]; high fat diet, 12 weeks): prevented the increase in the WAT weight; also recorded: decreased WAT weight
- Cross reactivity with 13 other NHR [7]: did not cross react
- EC50 [8]: < 0.01 µM
- Function on ER-β in transactivation [8]: agonists
